Measured values: patent US8309790B2, “Animal models for demyelination disorders” (University of Chicago, priority 2005, dated 2012)

How the values were obtained:
[1] = tested on: cultured rat oligodendrocytes; experiment: IFN-γ treatment of cultured rat oligodendrocytes (apoptosis, ER stress markers); type: cell-based
Experimental: To test whether apoptosis of oligodendrocytes that is induced by INF-γ affects ER stress, the effect on the morphology, the degree of apoptosis and the expression of ER markers was studied in a culture of oligodendrocyte precursor cells (OPC). Oligodendrocyte progenitors were cultured from neonatal rat brains (Baerwald, et al. (1998) J. Neurosci. Res. 52: 230-239). A mixed glial culture was grown in flasks in medium containing 10% fetal bovine serum (FBS), and when the astrocyte layer became confluent (10-14 days), oligodendrocyte progenitors were separated from astrocytes and microglia using an orbital shaker. Cells, greater than 95% of which were A2B5 positive, GFAP negative and CD11b negative, were cultured in 0.5% FBS containing medium, which also contained PDGF (10 ng/ml) and FGF (5 ng/ml) (both from R&D Systems, Minneapolis, Minn.). Then cells were switched to 0.5% FBS medium without PDGF and FGF for differentiation. After 5 days in the differentiating medium, approximately 40% of cells were positive for myelin protein 2′3′-cyclic nucleotide 3′-phosphodiestaerase (CNP). 70 U/ml recombinant rat IFN-γ (Calbiochem, La Jolla, Calif.) was added to the cells that had been allowed to differentiation for 5 days. After 5 d in the differentiating medium, about 40% of the cells were CNP positive. 70 U/ml of recombinant rat INF-γ (Calbiochem) was added to the cells that had been allowed to differentiate for 5d. To examine the oligodendroglial response to general ER stress-inducing agents, progenitor cells that had been cultured in differentiation medium for 5 or 7 days were treated with 2 μg/ml of tunicamycin (Sigma Aldrich) for 6 hours.
The level of apoptosis of the OPC cells was determined by double staining CNP (1:200; Stemberger Monoclonals, Lutherville, Md.) and TUNEL using the ApopTag Kit (Serologicals Corp., Norcross, […].) and following the manufacturer's instructions. Apoptosis was also evaluated by measuring the activity of caspase-3 in oligodendrocyte lysates using the Fluorimetric Caspase 3 Assay Kit (Sigma, St. Louis, Mo.), according to the manufacturer's instructions.
To determine whether INF-γ affects ER function, the RNA expression of ER markers binding immunoglobulin protein (BIP), CAAT enhancer binding protein homologous protein (CHOP), and caspase 12 was determined using real time PCR. RNA was isolated from cultured cells and mice brain using Trizol reagent (Invitrogen, Carlsbad, Calif.) and treated with DNAaseI (Invitrogen) to eliminate genomic DNA. Reverse transcription was performed using Superscript First Strand Synthesis System for RT-PCR kit (Invitrogen). Real-time PCR was performed with iQ Supermix (Bio-Rad, Hercules, Calif.) on a Bio-Rad iQ real-time PCR detection system (Bio-Rad). The following primers and probes (Integrated DNA Technologies Inc., Coralville, Iowa) for real-time PCR were used: mouse CHOP sense primer […] (SEQ ID NO: 34); mouse CHOP antisense primer […] (SEQ ID NO: 35); CHOP probe […] (SEQ ID NO: 36); mouse BIP sense primer […] (SEQ ID NO: 31); mouse BIP antisense primer […] (SEQ ID NO: 32); BIP probe […] (SEQ ID NO: 33); mouse caspase 12 sense primer […] (SEQ ID NO: 37); and mouse caspase antisense primer […] (SEQ ID NO: 38).
To determine the effect of INF-γ on the level of phosphorylated eIF-2α and caspase 12 proteins, western blot analysis was performed using the following antibodies anti-eIF-2α (1:500; Santa Cruz), anti-p-eIF-2α (1:1000, Cell signaling Technology), anti-caspase-12 (1:500; Santa Cruz) and anti-actin (1:1000; Sigma, St Louis, Mo.), and according to the following protocol. […]

mice with EAE = experiment: EAE, CNS delivery of INF-γ at the recovery stage (doxycycline withdrawn at PID7); type: in vivo
Excerpt: Double transgenic mice that allow for temporally regulated delivery of INF-γ to the CNS (Lin et al., J Neurosci 24:10074-10083 (2004)) were used to assess the role of INF-γ in the pathogenesis of EAE. GFAP/tTA; TRE/IFN-γ double transgenic mice, as described in Example 1 were used to determine the effect of INF-γ on the demyelination caused by EAE. All mice were fed doxycycline from the day of conception to repress the expression of INF-γ, and were immunized with myelin oligodendrocyte protein (MOG35-55) to induce EAE. At day 7 postimmunization (PID7), doxycycline was withdrawn from the experimental group (PID7 DOX−).
The level of INF-γ was determined in the control (DOX+) and the PID7 DOX− mice using an ELISA immunoassay as described in Example 1, and the severity of the disease was assessed as a function of a clinical score. Clinical severity scores were recorded daily according to a 0-5 point scale, where 0=healthy, 1=flaccid tail, 2=ataxia and/or paresis of hind limbs, 3=paralysis of hind limbs and/or paresis of forelimbs, 4=tetraparalysis, and 5=moribund or dead.
The spinal cord from DOX+ and DOX− animals with EAE was immunostained for MBP, and the remyelination of axons was evaluated. The number of oligodendrocytes was determined in the spine from DOX+ and DOX− mice as the number of CC1 positive cells. Axonal damage was evaluated by immunostaining of non-phosphorylated neurofilament-H. Antibodies to non-phosphorylated neurofilament-H were SMI32 diluted to 1:1000 and obtained from Stemberger Monoclonals.
INF-γ is known to induce MHC antigens and activate macrophages and T lymphocytes. The inflammatory effect of INF-γ was studied in the CNS during remyelination by determining the infiltration of T cells and macrophages, and measuring the expression of MHC-1, TNF-a, IL-2, IL-12 and IL-17. Immunohistochemistry was performed in tissues from the DOX+ and DOX− mice with EAE as described in Example 4. Experimental procedures were followed as described in the examples above.

[2] = spinal cord, DOX− compared to DOX+, PID50

interferon-γ [IFN-γ]
caspase-3 activity in the cell lysates ([1]; 70 U/ml IFN-γ): markedly increased
apoptosis, TUNEL and CNP double labeling ([1]; 70 U/ml IFN-γ for 48 h): induced apoptosis in a significant number of oligodendrocytes
cell morphology ([1]; 70 U/ml IFN-γ for 48 h, cells differentiated 5 days): abnormal morphological changes
level of phosphorylated eIF-2α (p-eIF-2α) ([1]; 70 U/ml IFN-γ, Western blot): significantly elevated
caspase-12 expression ([1]; 70 U/ml IFN-γ, real-time PCR): induction of caspase-12 was observed
levels of mRNA encoding BIP/GRP78 and CHOP/GADD153 ([1]; 70 U/ml IFN-γ, real-time PCR): 2 to 3 times
level of the active fragment of caspase-12 ([1]; after 48 h of IFN-γ treatment, Western blot): strongly elevated
number of CC1 positive oligodendrocytes (mice with EAE; DOX− animals, lumbar spinal cord, PID50): significantly decreased
mice that developed hind limb paralysis (mice with EAE; DOX− mice, PID17): 24 of 30
mean maximum clinical score (mice with EAE; DOX− mice, PID17, 0-5 point scale): 2.69±0.69
clinical score (mice with EAE; DOX− mice, PID50): ~2
mice with hind limb paralysis that continued to suffer from the paralysis (mice with EAE; DOX− mice, PID50): 12/24
axonal damage (non-phosphorylated neurofilament-H immunostaining) (mice with EAE; DOX− vs DOX+ mice): not affected
number of infiltrating T cells and macrophages in the lumbar spinal cord (CD3, CD11b) (mice with EAE; DOX− vs DOX+ mice): did not increase significantly
expression of IL-17 (mice with EAE; [2]): decrease
expression of iNOs and IL-23 (mice with EAE; [2]): did not alter
expression of MHC-1, TNF-a, IL2 and IL-12 (mice with EAE; spinal cord, DOX− compared to DOX+, PID50, real time PCR): increased
